We go through 43 compounds from patent US10709692B2, “Isoxazolidine derived inhibitors of receptor interacting protein kinase 1 (RIPK1)” (Denali Therapeutics Inc., priority 2015, dated 2020).

The structures appear in SMILES notation. Where only a bound is given, the exact number is not on record here.

This assay concerns the target T1, receptor interacting protein kinase 1 (GST-hRIPK1 (8-327)) (Homo sapiens, UniProt Q13546).
T1 construct: GST-hRIPK1 (8-327) enzyme was generated by Proteros GmbH by Baculovirus expression system
T1 sequence (Q13546 8-327): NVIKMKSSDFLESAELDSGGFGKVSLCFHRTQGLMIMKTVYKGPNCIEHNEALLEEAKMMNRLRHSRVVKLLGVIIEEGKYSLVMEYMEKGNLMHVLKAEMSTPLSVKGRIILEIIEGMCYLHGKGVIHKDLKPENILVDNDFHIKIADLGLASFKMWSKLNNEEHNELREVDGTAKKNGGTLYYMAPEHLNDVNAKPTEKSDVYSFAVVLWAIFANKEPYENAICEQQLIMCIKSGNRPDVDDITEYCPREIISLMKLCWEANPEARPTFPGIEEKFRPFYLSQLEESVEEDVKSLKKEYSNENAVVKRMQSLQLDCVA
Briefly: Fluorescent Polarization Binding (FP Binding) assay. The following applies: 10 nM GST-hRIPK1 (8-327), 5 nM fluorescent-labeled ligand, 30 min at RT. An outline of the steps:
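Displacement of 5 nM fluorescent ligand from 10 nM GST-hRIPK1 (8-327), 30 min at room temperature in pH 7.5 HEPES buffer, 1% DMSO. Fluorescence polarization read (ex 531/em 595 nm); IC50 fitted from percent inhibition and averaged over at least two independent experiments.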
Regarding `CC(C)(C)C(=O)N1OCC[C@H]1c1cncc(Cl)c1` [Compound 174, 1-[(3S)-3-(5-chloropyridin-3-yl)-1,2-oxazolidin-2-yl]-2,2-dimethylpropan-1-one], the IC50 (in general, the midpoint of a concentration-inhibition curve) is under 1 µM.
The compound `Cc1noc(C)c1C(C)C(=O)N1OCC[C@H]1c1ccc(F)cc1` (single isomer, unassigned) [Compound 186] registered a concentration for half-maximal inhibition (IC50) of 1 to 10 µM.
The compound `CC1(C(=O)N2OCC[C@H]2c2ccc(F)cc2)COC1` [Compound 33, (3S)-3-(4-Fluorophenyl)-2-(3-methyloxetane-3-carbonyl)-1,2-oxazolidine] returned an IC50 of under 1 µM.
As for `CC(C)(COC(F)(F)F)C(=O)N1OCC[C@H]1c1ccc(F)cc1` [Compound 176, 1-[(3S)-3-(4-fluorophenyl)-1,2-oxazolidin-2-yl]-2,2-dimethyl-3-(trifluoromethoxy) propan-1-one], the figure is under 1 µM.
Next, `CC(C)(C)C(=O)N1OCC[C@H]1c1c(F)cccc1F` [Compound 68, 1-[(3S)-3-(2,6-Difluorophenyl)-1,2-oxazolidin-2-yl]-2,2-dimethylpropan-1-one]: under 1 µM; `Cc1cnc([C@@H]2CCON2C(=O)C(C)C(F)(F)F)cn1` (single isomer, unassigned) [Compound 129]: under 1 µM.
Next, `CC(C)(C)C(=O)N1OCC[C@H]1c1ccc(C2CC2)nc1` [Compound 148, 1-[(3S)-3-(6-cyclopropylpyridin-3-yl)-1,2-oxazolidin-2-yl]-2,2-dimethylpropan-1-one]: under 1 µM; `O=C(N1OCC[C@H]1c1ccc(F)cc1)C1(C(F)(F)F)CC1` [Compound 37, (3S)-3-(4-Fluorophenyl)-2-[1-(trifluoromethyl)cyclo-propanecarbonyl]-1,2-oxazolidine]: under 1 µM; `CC(C(=O)N1OCC[C@H]1c1ccc(F)cc1)C(F)(F)F` (single isomer, unassigned) [Compound 94]: under 1 µM.
As for `CC(C)(C)C(=O)N1OCC[C@H]1c1ccn2ccnc2c1` [Compound 110, 1-[(3S)-3-{imidazo[1,2-A]pyridin-7-yl}-1-oxazolidin-2-yl]-2,2-dimethylpropan-1-one], the IC50 is under 1 µM.
Next, `Cc1ncc([C@@H]2CCON2C(=O)C(C)(C)C(F)F)cn1` [Compound 126, 3,3-difluoro-2,2-dimethyl-1-[(3S)-3-(2-methylpyrimidin-5-yl)-1,2-oxazolidin-2-yl]propan-1-one]: under 1 µM; `CC(CC#N)C(=O)N1OCC[C@H]1c1ccc(C#N)cc1` (single isomer, unassigned) [Compound 209]: under 1 µM; `CC(C)(C)C(=O)N1OCC[C@@H]1c1ccc(F)cc1F` [Compound 134, 1-[(3R)-3-(2,4-difluorophenyl)-1,2-oxazolidin-2-yl]-2,2-dimethylpropan-1-one]: under 1 µM.
Next, `CC1(C(=O)N2OCC[C@H]2c2ccc(F)cc2)CCCOC1` (single isomer, unassigned) [Compound 35]: under 1 µM.
Next, `CC(C)(C)C(=O)N1OCC[C@H]1c1cc(Br)cc(C#N)c1` [Compound 222, 3-bromo-5-[(3S)-2-(2,2-dimethylpropanoyl)-1,2-oxazolidin-3-yl]benzonitrile]: under 1 µM; `CC(C)(C)C(=O)N1OCCC1c1cccnc1` (stereo not shown) [Compound 58, 2,2-Dimethyl-1-[3-(pyridin-3-yl)-1,2-oxazolidin-2-yl]propan-1-one]: under 1 µM.
Regarding `O=C(C(C1CC1)C1CC1)N1OCC[C@H]1c1ccc(F)nc1` [Compound 167, 2,2-dicyclopropyl-1-[(3S)-3-(6-fluoropyridin-3-yl)-1,2-oxazolidin-2-yl]ethan-1-one], the half-maximal inhibitory concentration (IC50) was under 1 µM.
As for `CC(C)(C)C(=O)N1OCC[C@H]1c1ccc(Cl)cc1` [Compound 47, 1-[(3S)-3-(4-Chlorophenyl)-1,2-oxazolidin-2-yl]-2,2-dimethylpropan-1-one], the figure is under 1 µM; as for `CC(C)(C)C(=O)N1OCC[C@H]1c1ccc(C(F)(F)F)cn1` [Compound 122, 2,2-dimethyl-(3S)-3-[5-(trifluoromethyl)pyridin-2-yl-1,2-oxazolidin-2-yl]propan-1-one], under 1 µM; as for `CC(C)(COC(F)(F)F)C(=O)N1OCC[C@H]1c1cncc(Cl)c1` [Compound 177, 1-[(3S)-3-(5-chloropyridin-3-yl)-1,2-oxazolidin-2-yl]-2,2-dimethyl-3-(trifluoromethoxy) propan-1-one], under 1 µM.
Next, `N#Cc1cncc([C@@H]2CCON2C(=O)C(C2CC2)(C2CC2)C2CC2)c1` [Compound 242, 5-[(3S)-2-(tricyclopropylacetyl)-1,2-oxazolidin-3-yl]pyridine-3-carbonitrile]: 0.005 µM; `CC(C)(C)C(=O)N1OCC[C@H]1c1ccc(C(F)F)cc1` [Compound 128, 1-[(3S)-3-[4-(difluoromethyl)phenyl]-1,2-oxazolidin-2-yl]-2,2-dimethylpropan-1-one]: under 1 µM.
For the compound `C[C@](O)(C(=O)N1OCC[C@H]1c1ccc(F)nc1)C(F)(F)F` [Compound 166, (2S)-3,3,3-trifluoro-1-[(3S)-3-(6-fluoropyridin-3-yl)-1,2-oxazolidin-2-yl]-2-hydroxy-2-methylpropan-1-one], the IC50 was in the range of 1 to 10 µM.
As for `CC1(C(=O)N2OCC[C@H]2c2ccc(F)cc2)CCOC1` (single isomer, unassigned) [Compound 41], the figure is under 1 µM; as for `CC(CC(F)(F)F)C(=O)N1OCC[C@H]1c1ccc(C#N)cc1` (single isomer, unassigned) [Compound 230], under 1 µM.
As for `[2H]C([2H])([2H])C(C(=O)N1OCC[C@H]1c1ccc(F)cc1)(C([2H])([2H])[2H])C([2H])([2H])[2H]` [Compound 173, 1-[(3S)-3-(4-fluorophenyl)-1,2-oxazolidin-2-yl]-2,2-bis(^2H3)methyl(^2H3) propan-1-one], the figure is under 1 µM; as for `CC(C(=O)N1OCC[C@H]1c1ccc(F)nc1)C1CC1` (single isomer, unassigned) [Compound 116], under 1 µM; as for `CC(C(=O)N1OCCC1c1ccc(C#N)cc1)C(F)F` (single isomer, unassigned) [Compound 91], under 1 µM.
As for `CC(C)(COC(F)(F)F)C(=O)N1OCC[C@H]1c1ccc(F)nc1` [Compound 164, 1-[(3S)-3-(6-fluoropyridin-3-yl)-1,2-oxazolidin-2-yl]-2,2-dimethyl-3-(trifluoromethoxy) propan-1-one], the figure is under 1 µM; as for `CC1(C(=O)N2OCC[C@H]2c2ccc(F)cc2)CC(F)(F)C1` [Compound 155, (3S)-2-(3,3-difluoro-1-methylcyclobutane-carbonyl)-3-(4-fluorophenyl)-1,2-oxazolidine], under 1 µM.
Take `CC(C(=O)N1OCC[C@H]1c1ccc(C#N)cc1)C(F)(F)F` (single isomer, unassigned) [Compound 180]: the IC50 was under 1 µM.
Take `CC(C(=O)N1OCCC1c1ccc(C#N)cc1)C(F)F` (single isomer, unassigned) [Compound 92]: the IC50 was under 1 µM.
As for `CC(C)(C)C(=O)N1OCC[C@H]1c1cn2ccccc2n1` [Compound 111, 1-(3S)-3-{imidazo[1,2-A]pyridin-2-yl}-1,2-oxazolidin-2-yl-2,2-dimethylpropan-1-one], the figure is 1 to 10 µM; as for `CC1CC1C(=O)N1OCC[C@H]1c1ccc(C#N)cc1` (single isomer, unassigned) [Compound 215], under 1 µM; as for `CC(C)(C)C(=O)N1OCC[C@H]1c1ccnc(F)c1` [Compound 46, 1-[(3S)-3-(2-Fluoropyridin-4-yl)-1,2-oxazolidin-2-yl]-2,2-dimethylpropan-1-one], under 1 µM.
Next, `CC1(C(=O)N2OCC[C@H]2c2ccc(F)nc2)CC1(F)F` (single isomer, unassigned) [Compound 112]: under 1 µM.
Next, `CC(C)(C)C(=O)N1OCC[C@H]1c1cc(C#N)ccc1F` [Compound 150, 3-[(3S)-2-(2,2-dimethylpropanoyl)-1,2-oxazolidin-3-yl]-4-fluorobenzonitrile]: under 1 µM; `CN1CC(C)(C(=O)N2OCC[C@H]2c2ccc(F)cc2)C1` [Compound 42, (3S)-2-(1,3-Dimethylazetidine-3-carbonyl)-3-(4-fluorophenyl)-1,2-oxazolidine]: over 10 µM; `CC(C)(C)C(=O)N1OCCC1c1ccc(F)cc1` (single isomer, unassigned) [Compound 74, 1-[3-(4-Fluorophenyl)-1,2-oxazolidin-2-yl]-2,2-dimethylpropan-1-one]: over 10 µM.
In the case of `CC(C)S(=O)(=O)N1OCC[C@H]1c1cncc(C#N)c1` [Compound 225, 5-[(3S)-2-(propane-2-sulfonyl)-1,2-oxazolidin-3-yl]pyridine-3-carbonitrile], the IC50 lay in the range of 1 to 10 µM.
As for `Cc1ccc([C@@H]2CCON2C(=O)C(C)(C)C)cn1` [Compound 152, 2,2-dimethyl-1-[(3S)-3-(6-methylpyridin-3-yl)-1,2-oxazolidin-2-yl]propan-1-one], the figure is under 1 µM; as for `CC(C(=O)N1OCC[C@H]1c1ccc(C#N)cc1)C1CC1` (single isomer, unassigned) [Compound 213], under 1 µM.
`CC(CC(F)F)C(=O)N1OCC[C@H]1c1ccc(C#N)cc1` (single isomer, unassigned) [Compound 232] gave an IC50 of under 1 µM.
